We go through seven cell lines from the supplement of paper PMC10307832.

Experiment in all cases: relative viability (nuclei count vs DMSO), 5 days (fraction); higher = more cells survive
Compound in the test “Seliciclib + Bortezomib”: CC[C@H](CO)Nc1nc(NCc2ccccc2)c2ncn(C(C)C)c2n1 [Seliciclib] + CC(C)C[C@H](NC(=O)[C@H](Cc1ccccc1)NC(=O)c1cnccn1)B(O)O [Bortezomib] (partner 0.002 µM)
The method in brief:
(§1)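 Relative viability is defined as nuclei in treated wells over nuclei in vehicle wells. Duplicate plates were run and medians reported. Lung cancer cell lines in 1536-well plates were dosed by pin tool one day after seeding, with one drug or with a fixed anchor-drug dose plus five library-drug doses (not always all listed) in √10 steps, and nuclei were counted after 5 days.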

Compound in the test “Seliciclib + Alpelisib”: CC[C@H](CO)Nc1nc(NCc2ccccc2)c2ncn(C(C)C)c2n1 [Seliciclib] + Cc1nc(NC(=O)N2CCC[C@H]2C(N)=O)sc1-c1ccnc(C(C)(C)C(F)(F)F)c1 [Alpelisib] (partner 2 µM)
The gist of the method:
as §1

Compound in the test “Seliciclib + Pemetrexed”: CC[C@H](CO)Nc1nc(NCc2ccccc2)c2ncn(C(C)C)c2n1 [Seliciclib] + Nc1nc2[nH]cc(CCc3ccc(C(=O)N[C@@H](CCC(=O)O)C(=O)O)cc3)c2c(=O)[nH]1 [Pemetrexed] (partner 0.2 µM)
The gist of the method: as §1

Compound in the test “Seliciclib + Olaparib”: CC[C@H](CO)Nc1nc(NCc2ccccc2)c2ncn(C(C)C)c2n1 [Seliciclib] + O=C(c1cc(Cc2n[nH]c(=O)c3ccccc23)ccc1F)N1CCN(C(=O)C2CC2)CC1 [Olaparib] (partner 8 µM)
The method in brief:
as §1

In the case of NCI-H2023, the relative viability in the test with Seliciclib + Bortezomib (first compound 0.08 µM) is 0.998; with Seliciclib + Bortezomib (first compound 0.253 µM), 1.1; with Seliciclib + Bortezomib (first compound 0.8 µM), 1.1; in the test with Seliciclib + Bortezomib (first compound 2.53 µM), 0.747; in the test with Seliciclib + Bortezomib (first compound 8 µM), 0.84; with Seliciclib + Alpelisib (first compound 0.08 µM), 0.548. Moreover, the relative viability with Seliciclib + Alpelisib (first compound 0.253 µM) amounted to 0.542; with Seliciclib + Alpelisib (first compound 0.8 µM), 0.523; with Seliciclib + Alpelisib (first compound 2.53 µM) it was 0.58; with Seliciclib + Alpelisib (first compound 8 µM) it was 0.531; with Seliciclib + Pemetrexed (first compound 0.08 µM), 0.261; with Seliciclib + Pemetrexed (first compound 0.253 µM), 0.276. For the same cell line, the relative viability amounted to 0.229 in the test with Seliciclib + Pemetrexed (first compound 0.8 µM); 0.181 with Seliciclib + Pemetrexed (first compound 2.53 µM); 0.222 with Seliciclib + Pemetrexed (first compound 8 µM); 0.517 with Seliciclib + Olaparib (first compound 0.08 µM); 0.472 with Seliciclib + Olaparib (first compound 0.253 µM); 0.449 in the test with Seliciclib + Olaparib (first compound 0.8 µM). Further, the relative viability with Seliciclib + Olaparib (first compound 2.53 µM) stood at 0.536; with Seliciclib + Olaparib (first compound 8 µM), 0.366.
Turning to NCI-H2085, the relative viability turned out to be 0.759 with Seliciclib + Bortezomib (first compound 0.08 µM); 1.09 in the test with Seliciclib + Bortezomib (first compound 0.253 µM); 1.1 with Seliciclib + Bortezomib (first compound 0.8 µM); 1.03 with Seliciclib + Bortezomib (first compound 2.53 µM); 0.841 with Seliciclib + Bortezomib (first compound 8 µM); 0.971 with Seliciclib + Alpelisib (first compound 0.08 µM). For the same cell line, the relative viability was determined as 1.19 with Seliciclib + Alpelisib (first compound 0.253 µM); 0.984 in the test with Seliciclib + Alpelisib (first compound 0.8 µM); 0.926 with Seliciclib + Alpelisib (first compound 2.53 µM); 0.809 with Seliciclib + Alpelisib (first compound 8 µM); 0.979 with Seliciclib + Pemetrexed (first compound 0.08 µM); 1.01 in the test with Seliciclib + Pemetrexed (first compound 0.253 µM). In addition, the relative viability with Seliciclib + Pemetrexed (first compound 0.8 µM) stood at 0.856; with Seliciclib + Pemetrexed (first compound 2.53 µM), 0.935; in the test with Seliciclib + Pemetrexed (first compound 8 µM), 0.727; with Seliciclib + Olaparib (first compound 0.08 µM), 0.734; with Seliciclib + Olaparib (first compound 0.253 µM) it was 0.845; with Seliciclib + Olaparib (first compound 0.8 µM), 0.73. The figures for the relative viability in the test with Seliciclib + Olaparib (first compound 2.53 µM) and in the test with Seliciclib + Olaparib (first compound 8 µM) were 0.738 and 0.63, respectively.
Consider NCI-H2087, for which the relative viability worked out at 0.73 with Seliciclib + Bortezomib (first compound 0.08 µM); 0.792 in the test with Seliciclib + Bortezomib (first compound 0.253 µM); 0.719 with Seliciclib + Bortezomib (first compound 0.8 µM); 0.752 with Seliciclib + Bortezomib (first compound 2.53 µM); 0.661 in the test with Seliciclib + Bortezomib (first compound 8 µM); 1.08 with Seliciclib + Alpelisib (first compound 0.08 µM). Moreover, the relative viability with Seliciclib + Alpelisib (first compound 0.253 µM) worked out at 1.21; with Seliciclib + Alpelisib (first compound 0.8 µM), 1.06; in the test with Seliciclib + Alpelisib (first compound 2.53 µM) it was 1.09; in the test with Seliciclib + Alpelisib (first compound 8 µM), 0.815; in the test with Seliciclib + Pemetrexed (first compound 0.08 µM), 0.635; with Seliciclib + Pemetrexed (first compound 0.253 µM), 0.591. In addition, the relative viability with Seliciclib + Pemetrexed (first compound 0.8 µM) was found to be 0.673; with Seliciclib + Pemetrexed (first compound 2.53 µM), 0.652; in the test with Seliciclib + Pemetrexed (first compound 8 µM) it was 0.639; with Seliciclib + Olaparib (first compound 0.08 µM), 0.597; with Seliciclib + Olaparib (first compound 0.253 µM) it was 0.616; with Seliciclib + Olaparib (first compound 0.8 µM), 0.38. Moreover, the relative viability in the test with Seliciclib + Olaparib (first compound 2.53 µM) worked out at 0.577; in the test with Seliciclib + Olaparib (first compound 8 µM), 0.514.
Regarding NCI-H2126, the relative viability with Seliciclib + Bortezomib (first compound 0.08 µM) was determined as 1.12; with Seliciclib + Bortezomib (first compound 0.253 µM), 1.14; with Seliciclib + Bortezomib (first compound 0.8 µM) it was 1.07; in the test with Seliciclib + Bortezomib (first compound 2.53 µM), 0.957; in the test with Seliciclib + Bortezomib (first compound 8 µM) it was 1.04; in the test with Seliciclib + Alpelisib (first compound 0.08 µM), 0.681. For the same cell line, the relative viability in the test with Seliciclib + Alpelisib (first compound 0.253 µM) is 0.698; with Seliciclib + Alpelisib (first compound 0.8 µM), 0.753; with Seliciclib + Alpelisib (first compound 2.53 µM) it was 0.749; with Seliciclib + Alpelisib (first compound 8 µM), 0.673; with Seliciclib + Pemetrexed (first compound 0.08 µM) it was 0.631; in the test with Seliciclib + Pemetrexed (first compound 0.253 µM), 0.683. Moreover, the relative viability with Seliciclib + Pemetrexed (first compound 0.8 µM) was found to be 0.682; with Seliciclib + Pemetrexed (first compound 2.53 µM), 0.515; with Seliciclib + Pemetrexed (first compound 8 µM), 0.542; with Seliciclib + Olaparib (first compound 0.08 µM), 0.886; with Seliciclib + Olaparib (first compound 0.253 µM), 0.953; with Seliciclib + Olaparib (first compound 0.8 µM), 0.888. Moreover, the relative viability worked out at 0.908 with Seliciclib + Olaparib (first compound 2.53 µM) and 0.745 in the test with Seliciclib + Olaparib (first compound 8 µM).
NCI-H2228: the relative viability in the test with Seliciclib + Bortezomib (first compound 0.08 µM) is 1.05; with Seliciclib + Bortezomib (first compound 0.253 µM), 0.943; with Seliciclib + Bortezomib (first compound 0.8 µM), 0.954; with Seliciclib + Bortezomib (first compound 2.53 µM), 0.978; in the test with Seliciclib + Bortezomib (first compound 8 µM), 0.713; in the test with Seliciclib + Alpelisib (first compound 0.08 µM) it was 0.639. Besides, the relative viability was found to be 0.69 with Seliciclib + Alpelisib (first compound 0.253 µM); 0.936 in the test with Seliciclib + Alpelisib (first compound 0.8 µM); 0.658 with Seliciclib + Alpelisib (first compound 2.53 µM); 0.63 in the test with Seliciclib + Alpelisib (first compound 8 µM); 0.325 with Seliciclib + Pemetrexed (first compound 0.08 µM); 0.326 with Seliciclib + Pemetrexed (first compound 0.253 µM). Moreover, the relative viability turned out to be 0.337 with Seliciclib + Pemetrexed (first compound 0.8 µM); 0.34 in the test with Seliciclib + Pemetrexed (first compound 2.53 µM); 0.344 with Seliciclib + Pemetrexed (first compound 8 µM); 0.905 with Seliciclib + Olaparib (first compound 0.08 µM); 0.649 with Seliciclib + Olaparib (first compound 0.253 µM); 0.741 in the test with Seliciclib + Olaparib (first compound 0.8 µM). The relative viability with Seliciclib + Olaparib (first compound 2.53 µM) turned out to be 0.577; in the test with Seliciclib + Olaparib (first compound 8 µM) it was 0.654.
In the case of NCI-H2347, the relative viability was 1.22 with Seliciclib + Bortezomib (first compound 0.08 µM); 0.927 in the test with Seliciclib + Bortezomib (first compound 0.253 µM); 0.908 with Seliciclib + Bortezomib (first compound 0.8 µM); 0.847 in the test with Seliciclib + Bortezomib (first compound 8 µM); 1.05 in the test with Seliciclib + Alpelisib (first compound 0.08 µM); 1.04 with Seliciclib + Alpelisib (first compound 0.253 µM). The relative viability with Seliciclib + Alpelisib (first compound 0.8 µM) is 0.757; in the test with Seliciclib + Alpelisib (first compound 2.53 µM), 1.03; with Seliciclib + Alpelisib (first compound 8 µM) it was 0.805; with Seliciclib + Pemetrexed (first compound 0.08 µM) it was 0.409; in the test with Seliciclib + Pemetrexed (first compound 0.253 µM) it was 0.454; with Seliciclib + Pemetrexed (first compound 0.8 µM), 0.419. For the same cell line, the relative viability in the test with Seliciclib + Pemetrexed (first compound 2.53 µM) was determined as 0.437; in the test with Seliciclib + Pemetrexed (first compound 8 µM) it was 0.42; in the test with Seliciclib + Olaparib (first compound 0.08 µM) it was 0.557; in the test with Seliciclib + Olaparib (first compound 0.253 µM), 0.604; with Seliciclib + Olaparib (first compound 0.8 µM), 0.518; with Seliciclib + Olaparib (first compound 2.53 µM), 0.579. Further, the relative viability in the test with Seliciclib + Olaparib (first compound 8 µM) is 0.557.
For the cell line NCI-H2405, the relative viability came out at 0.984 with Seliciclib + Bortezomib (first compound 0.08 µM); 0.956 in the test with Seliciclib + Bortezomib (first compound 0.253 µM); 0.946 with Seliciclib + Bortezomib (first compound 0.8 µM); 0.922 with Seliciclib + Bortezomib (first compound 2.53 µM); 0.905 in the test with Seliciclib + Bortezomib (first compound 8 µM); 0.718 with Seliciclib + Alpelisib (first compound 0.08 µM). In addition, the relative viability turned out to be 0.698 with Seliciclib + Alpelisib (first compound 0.253 µM); 0.642 in the test with Seliciclib + Alpelisib (first compound 0.8 µM); 0.689 with Seliciclib + Alpelisib (first compound 2.53 µM); 0.729 with Seliciclib + Alpelisib (first compound 8 µM); 1.05 with Seliciclib + Pemetrexed (first compound 0.08 µM); 1.23 with Seliciclib + Pemetrexed (first compound 0.253 µM). For the same cell line, the relative viability with Seliciclib + Pemetrexed (first compound 0.8 µM) is 1.07; in the test with Seliciclib + Pemetrexed (first compound 2.53 µM), 0.825; with Seliciclib + Pemetrexed (first compound 8 µM), 0.83; in the test with Seliciclib + Olaparib (first compound 0.08 µM), 0.88; with Seliciclib + Olaparib (first compound 0.253 µM) it was 0.939; with Seliciclib + Olaparib (first compound 0.8 µM), 0.934. The relative viability with Seliciclib + Olaparib (first compound 2.53 µM) turned out to be 0.739; in the test with Seliciclib + Olaparib (first compound 8 µM) it was 0.724.
